In patent US20260103461A1, “ESTROGEN RECEPTOR MODULATORS AND USES THEREOF” (Olema Pharmaceuticals, Inc., priority 2022, published 2026):

Biological target: T1, estrogen receptor (Homo sapiens, UniProt P03372)
T1 construct: endogenous in cells; host or cells: ECC-1 cells
T1 sequence (P03372 1-595): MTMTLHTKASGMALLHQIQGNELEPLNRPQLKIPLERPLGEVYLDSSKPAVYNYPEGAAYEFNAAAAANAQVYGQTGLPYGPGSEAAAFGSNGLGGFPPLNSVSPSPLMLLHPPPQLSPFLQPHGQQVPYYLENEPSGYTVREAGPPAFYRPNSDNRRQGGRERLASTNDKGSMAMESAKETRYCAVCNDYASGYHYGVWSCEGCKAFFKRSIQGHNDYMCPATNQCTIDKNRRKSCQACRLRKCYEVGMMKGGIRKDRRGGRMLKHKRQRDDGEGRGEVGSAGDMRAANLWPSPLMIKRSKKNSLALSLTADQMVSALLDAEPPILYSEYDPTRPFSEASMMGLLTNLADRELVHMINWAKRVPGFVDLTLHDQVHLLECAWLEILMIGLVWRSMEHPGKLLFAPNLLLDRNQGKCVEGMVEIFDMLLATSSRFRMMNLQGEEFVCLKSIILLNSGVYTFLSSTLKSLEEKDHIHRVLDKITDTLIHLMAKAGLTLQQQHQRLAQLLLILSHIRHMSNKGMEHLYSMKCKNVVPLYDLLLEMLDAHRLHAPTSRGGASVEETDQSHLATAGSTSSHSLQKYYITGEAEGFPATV
Assay: AP (alkaline phosphatase) assay in ECC-1 cells, agonist mode and antagonist mode
Type: cell-based
Conditions: 3 days, absence of E2 (agonist mode) or 500 pM E2 (antagonist mode), AP activity normalized to 500 pM E2 alone
Method: ECC-1 cells were trypsinized and resuspended in hormone-depleted media and plated at a density of 15 k cells per well into a 96-well plate for at least 4 hours. Cells were treated with test compounds in the absence of E2 (for agonist mode) or in the presence of 500 pM E2 (for antagonist mode) for 3 days and plates were subsequently frozen at −80° C. Thawed plates were incubated with a chromogenic substrate of AP, p-nitrophenyl phosphate (Thermo Fisher Scientific), for 40 minutes at 42° C., and absorbances were read at 405 nm. AP activity was normalized to the activity of 500 pM E2 alone.
The compound numbers correspond to the compound numbers of Table 1 and 2. Compounds having an activity designated as “+” provided estrogen receptor agonism having (i) at least 80% increase in the E2-normalized signal in the AP assay (agonist mode) and (ii) no more than 80% reduction in the E2-normalized signal in the AP assay (antagonist mode). Compounds having an activity designated as “++” provided estrogen receptor antagonism having (i) between 10% and 80% increase in the E2-normalized signal in the AP assay (agonist mode) and (ii) between 10% and 80% reduction in the E2-normalized signal in the AP assay (antagonist mode).

Row | SMILES | Activity (estrogen receptor modulation, agonism and antagonism)
1 | C[C@@H]1Cc2c([nH]c3ccccc23)[C@@H](c2cnc(O[C@H]3CN(CCCF)C[C@@H]3F)s2)N1CC(F)(F)CO [Example I-32, 2,2-difluoro-3-[(1S,3R)-1-[2-[(3S,4S)-4-fluoro-1-(3-fluoropropyl)pyrrolidin-3-yl]oxythiazol-5-yl]-3-methyl-1,3,4,9-tetrahydropyrido[3,4-b]indol-2-yl]propan-1-ol] | + (estrogen receptor agonism having (i) at least 80% increase in the E2-normalized signal in the AP assay (agonist mode) and (ii) no more than 80% reduction in the E2-normalized signal in the AP assay (antagonist mode))
2 | C[C@@H]1Cc2c([nH]c3ccccc23)[C@@H](c2cnc(O[C@H]3CN(CCCF)C[C@H]3F)s2)N1CC(F)(F)CO [Example I-33, 2,2-difluoro-3-[(1S,3R)-1-[2-[(3S,4R)-4-fluoro-1-(3-fluoropropyl)pyrrolidin-3-yl]oxythiazol-5-yl]-3-methyl-1,3,4,9-tetrahydropyrido[3,4-b]indol-2-yl]propan-1-ol] | +++ (estrogen receptor antagonism (i) with pIC50 greater than 7.5 and at least a 10% reduction in the E2-normalized signal in the AP assay (antagonist mode); and no more than 10% increase in E2-normalized signal in the AP assay (agonist mode))
3 | C[C@@H]1Cc2c([nH]c3ccccc23)[C@@H](c2cnc(O[C@@H]3CCN(CCCF)[C@H]3C)s2)N1CC(F)(F)CO [Example I-34, 2,2-difluoro-3-[(1S,3R)-1-[2-[(2S,3R)-1-(3-fluoropropyl)-2-methyl-pyrrolidin-3-yl]oxythiazol-5-yl]-3-methyl-1,3,4,9-tetrahydropyrido[3,4-b]indol-2-yl]propan-1-ol] | + (estrogen receptor agonism having (i) at least 80% increase in the E2-normalized signal in the AP assay (agonist mode) and (ii) no more than 80% reduction in the E2-normalized signal in the AP assay (antagonist mode))
4 | C[C@@H]1[C@H](Oc2ncc([C@@H]3c4[nH]c5ccccc5c4C[C@@H](C)N3CC(F)(F)CO)s2)CCN1CCCF [Example I-35, 2,2-difluoro-3-[(1S,3R)-1-[2-[(2R,3R)-1-(3-fluoropropyl)-2-methyl-pyrrolidin-3-yl]oxythiazol-5-yl]-3-methyl-1,3,4,9-tetrahydropyrido[3,4-b]indol-2-yl]propan-1-ol] | + (estrogen receptor agonism having (i) at least 80% increase in the E2-normalized signal in the AP assay (agonist mode) and (ii) no more than 80% reduction in the E2-normalized signal in the AP assay (antagonist mode))
5 | C[C@@H]1Cc2c([nH]c3ccccc23)[C@@H](c2cnc(O[C@@H]3CON(CCCF)C3)s2)N1CC(F)(F)CO [Example I-36, 2,2-difluoro-3-[(1S,3R)-1-[2-[(4S)-2-(3-fluoropropyl)isoxazolidin-4-yl]oxythiazol-5-yl]-3-methyl-1,3,4,9-tetrahydropyrido[3,4-b]indol-2-yl]propan-1-ol] | + (estrogen receptor agonism having (i) at least 80% increase in the E2-normalized signal in the AP assay (agonist mode) and (ii) no more than 80% reduction in the E2-normalized signal in the AP assay (antagonist mode))
6 | C[C@@H]1Cc2c([nH]c3ccccc23)[C@@H](c2cnc(O[C@@H]3CCCN(CCCF)C3)s2)N1CC(F)(F)CO [Example I-37, 2,2-difluoro-3-[(1S,3R)-1-[2-[[(3R)-1-(3-fluoropropyl)-3-piperidyl]oxy]thiazol-5-yl]-3-methyl-1,3,4,9-tetrahydropyrido[3,4-b]indol-2-yl]propan-1-ol] | +++ (estrogen receptor antagonism (i) with pIC50 greater than 7.5 and at least a 10% reduction in the E2-normalized signal in the AP assay (antagonist mode); and no more than 10% increase in E2-normalized signal in the AP assay (agonist mode))
7 | C[C@@H]1Cc2c([nH]c3ccccc23)[C@@H](c2cnc(O[C@H]3CCCN(CCCF)C3)s2)N1CC(F)(F)CO [Example I-38] | + (estrogen receptor agonism having (i) at least 80% increase in the E2-normalized signal in the AP assay (agonist mode) and (ii) no more than 80% reduction in the E2-normalized signal in the AP assay (antagonist mode))
